Test results: US8349836B2, “Phthalazine derivatives as inhibitors of protein kinase” (priority 2006, dated 2013)

The compounds below were run against p70S6K(h) (Homo sapiens, UniProt P23443) (assay: Enzyme Inhibition Assay (p70S6K(h))). Details: at 0.3 μM concentration.
Assay type: biochemical
Experimental: Enzyme Inhibition Assay (p70S6K(h))
In a final reaction volume of 25 uL, p70S6K(h) (5-10 mU) is incubated with 8 mM MOPS pH 7.0, 0.2 mM EDTA, 100 iM KKRNRTLTV, 10 mM MgAcetate and [gamma-33P-ATP] (specific activity approx. 500 cpm/pmol, concentration as required). The reaction is initiated by the addition of the MgATP mix. After incubation for 40 minutes at room temperature, the reaction is stopped by the addition of 5 uL of a 3% phosphoric acid solution. 10 uL of the reaction is then spotted onto a P30 filtermat and washed three times for 5 minutes in 75 mM phosphoric acid and once in methanol prior to drying and scintillation counting.

Chain of p70S6K(h) (P23443 whole entry): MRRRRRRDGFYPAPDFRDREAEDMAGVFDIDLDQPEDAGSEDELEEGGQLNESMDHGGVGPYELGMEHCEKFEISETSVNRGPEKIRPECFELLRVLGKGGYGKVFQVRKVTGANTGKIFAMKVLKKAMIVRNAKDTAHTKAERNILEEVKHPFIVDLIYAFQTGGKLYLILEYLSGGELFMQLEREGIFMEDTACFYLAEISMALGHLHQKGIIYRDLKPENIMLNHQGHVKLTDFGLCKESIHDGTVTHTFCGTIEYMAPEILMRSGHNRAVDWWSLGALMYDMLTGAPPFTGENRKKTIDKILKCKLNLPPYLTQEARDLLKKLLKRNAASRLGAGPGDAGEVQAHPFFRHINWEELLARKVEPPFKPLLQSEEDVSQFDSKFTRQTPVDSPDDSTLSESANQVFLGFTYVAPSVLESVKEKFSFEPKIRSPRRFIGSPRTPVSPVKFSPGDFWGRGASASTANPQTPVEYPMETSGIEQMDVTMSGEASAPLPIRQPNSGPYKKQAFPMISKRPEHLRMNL

SMILES | inhibition at 0.3 µM
O=C(Nc1cccc(C(F)(F)F)c1)c1ccc2c(O)nnc(Cl)c2c1 [Example 26, 4-Chloro-1-hydroxy-phthalazine-6-carboxylic acid (3-trifluoromethyl-phenyl)-amide] | > 50%
O=C(Nc1cccc(C(F)(F)F)c1)c1ccc2c(O)nnc(I)c2c1 [Example 42, 4-Iodo-1-hydroxy-phthalazine-6-carboxylic acid (3-trifluoromethyl-phenyl)-amide] | > 50%
O=c1[nH]nc(Cl)c2cc(NCc3cccc4c3OCCCO4)ccc12 [Example 107, 4-Chloro-6-[(3,4-dihydro-2H-benzo[b][1,4]dioxepin-6-ylmethyl)-amino]-2H-phthalazin-1-one] | > 50%
O=c1[nH]nc(Cl)c2cc(N3CCN(c4ccccc4)CC3)ccc12 [Example 126, 4-Chloro-6-(4-phenyl-piperazin-1-yl)-2H-phthalazin-1-one] | > 50%
Oc1nnc(Cl)c2cc(NCc3cccc(C(F)(F)F)c3)ccc12 [Example 24, 4-chloro-6-(3-trifluoromethyl-benzylamino)-phthalazin-1-ol] | > 50%
O=c1[nH]nc(Cl)c2ccc(Nc3cccc(C(F)(F)F)c3)cc12 [Example 64, 4-Chloro-7-(3-trifluoromethyl-phenylamino)-2H-phthalazin-1-one] | > 50%
